Laboratory results from PMC7046733, “Plantaricin NC8 αβ exerts potent antimicrobial activity against Staphylococcus spp. and enhances the effects of antibiotics” (Scientific Reports, 2020).
Read-outs that look alike come from different tables or passages of the source. Residues, ends and D or L forms follow the SMILES beside them.

Key:
S. epidermidis 154 = experiment: Broth microdilution MIC/MBC; assay type: cell-based
Method: (§1) The broth microdilution method was used to determine minimal inhibitory concentration (MIC) and minimal bactericidal concentration (MBC). Briefly, two-fold serial dilutions of the peptides were used and the final concentrations ranged between 0.097–50 µM. The final concentrations of the antibiotics vancomycin and teicoplanin ranged between 0.097–50 µg/ml, while rifampicin ranged between 0.0019–1 µg/ml and gentamicin 0.0097–5 µg/ml. The inhibitory and bactericidal effects of peptides together with antibiotics were studied by using the same concentration series of antibiotics with constant, sub-MIC concentrations, of the peptides in all the wells (see figure legends). The plates were then incubated at 37 °C for 20 h. […] MBC was determined as the lowest concentration where no growth of bacterial colonies (10 µl) was observed on blood-agar plates. All experiments were repeated at least three times. The combined effect of teicoplanin and PLNC8 αβ against S. epidermidis ATCC 12228 was evaluated by the microdilution checkerboard method. Briefly, two-fold serial dilutions of the antibiotics and PLNC8 αβ were prepared together in microtiter plates, either alone or in combination. The MIC values were determined visually and spectroscopically, and the fractional inhibitory concentration (ΣFIC) was calculated by the equation (MIC of PLNC8 αβ in combination/MIC of PLNC8 αβ alone) + (MIC of antibiotic in combination/MIC of antibiotic alone). Synergy was defined as ΣFIC ≤ 0.5, additive when 0.5 <ΣFIC ≤1, indifferent when 1 <ΣFIC <2 and antagonistic when ΣFIC ≥ 2.

[1] = tested on: S. epidermidis ATCC 12228; experiment: microbe, parasite or virus in culture
Method: as §1

Trypsin = experiment: Proteolytic degradation; assay type: in vitro ADME; conditions: peptide 100 µM, trypsin 0.125 mg/ml (~5 µM), ammonium bicarbonate buffer 50 mM pH 8.5, 16 h, 37 °C, MALDI-ToF MS
Source text: Samples were resuspended in MQ-water containing 0.1% TFA, desalted using ZipTip-C18 columns (Millipore) and analyzed using MALDI-ToF with α-cyano-4-hydroxycinnamic acid as matrix.

[2] = tested on: S. epidermidis 126 (hGISE); experiment: Broth microdilution MIC/MBC; assay type: cell-based
Method: as §1, with “legends).” for “legends). The plates were then incubated at 37 °C for 20 h.”

[3] = tested on: S. aureus CCUG 35601 (MRSA); experiment: Broth microdilution MIC/MBC; assay type: cell-based
Method: as §1, with “legends).” for “legends). The plates were then incubated at 37 °C for 20 h.”

[4] = tested on: S. epidermidis 157 (hGISE); experiment: Broth microdilution MIC/MBC; assay type: cell-based
Method: as §1, with “legends).” for “legends). The plates were then incubated at 37 °C for 20 h.”

human erythrocytes = experiment: Haemolysis; assay type: cell-based; conditions: isolated human erythrocytes, 1 h, 37 °C, n=3
Method: The haemolytic activity of the peptides was investigated by collecting blood from healthy volunteers in heparinized vacutainers. Briefly, the blood was centrifuged at 600 × g for 5 min and the erythrocyte pellet was washed three times in PBS. The cells were then suspended in PBS and added to 96-well plates (15% erythrocyte suspension/well), containing the peptides with two-fold serial dilution. The plates were incubated for 1 h at 37 °C followed by centrifugation for 5 min at 900 × g and measurement of the supernatants at 540 nm. Haemolytic activity (%) was calculated by subtracting the negative control from all values and normalization against the positive control (0.5% Triton X-100), that was set to 100%. All experiments, each in duplicate, were repeated three times.

[5] = Staphylococcus epidermidis, 154, 20 h, antibiotic alone, 20 h, read-out: MBC
[6] = Staphylococcus epidermidis, ATCC12228, 20 h
[7] = Staphylococcus epidermidis, 154, 20 h
[8] = Staphylococcus epidermidis, 24 h
[9] = antibiotic alone, broth microdilution, 37 °C, 20 h
[10] = S. epidermidis 126, antibiotic alone, after 24 h
[11] = MRSA, antibiotic alone, after 24 h
[12] = S. epidermidis 157, antibiotic alone, after 24 h

CNC(C)C1CCC(N)C(OC2C(N)CC(N)C(OC3OCC(C)(O)C(NC)C3O)C2O)O1 (stereo not drawn) [Gentamicin, gentamicin]
MBC (S. epidermidis 154; [5]): > 100 µg/mL
MIC (S. epidermidis 154; Staphylococcus epidermidis, 154, 20 h, antibiotic alone, 20 h, read-out: MIC): > 100 µg/mL
MBC [1, 6]: 0.31 µg/mL
MIC [1, 6]: 0.31 µg/mL

CC(C)C[C@H](NC(=O)[C@H](Cc1ccc(O)cc1)NC(=O)[C@H](Cc1ccc(O)cc1)NC(=O)CNC(=O)[C@H](Cc1c[nH]c2ccccc12)NC(=O)[C@H](CO)NC(=O)[C@H](CO)NC(=O)[C@H](Cc1c[nH]c2ccccc12)NC(=O)[C@H](CC(C)C)NC(=O)[C@H](CCCCN)NC(=O)[C@@H](NC(=O)[C@@H](NC(=O)[C@H](CC(C)C)NC(=O)[C@@H](N)CC(=O)O)[C@@H](C)O)[C@@H](C)O)C(=O)NCC(=O)N[C@@H](CCCCN)C(=O)N[C@@H](CCCCN)C(=O)N[C@@H](C)C(=O)N[C@@H](CCCNC(=N)N)C(=O)N[C@@H](Cc1c[nH]c2ccccc12)C(=O)N[C@@H](CC(N)=O)C(=O)N[C@@H](CC(C)C)C(=O)N[C@@H](CCCCN)C(=O)N[C@@H](Cc1c[nH]cn1)C(=O)N1CCC[C@H]1C(=O)N[C@@H](Cc1ccc(O)cc1)C(=O)N[C@H](C(=O)N[C@@H](CCC(N)=O)C(=O)N[C@@H](Cc1ccccc1)C(=O)O)C(C)C [L-PLNC8 α] (H-DLTTKLWSSWGYYLGKKARWNLKHPYVQF-OH)
degradation by trypsin (Trypsin): efficiently degraded by trypsin

CO[C@H]1/C=C/O[C@@]2(C)Oc3c(C)c(O)c4c(O)c(c(/C=N/N5CCN(C)CC5)c(O)c4c3C2=O)NC(=O)/C(C)=C\C=C\[C@H](C)[C@H](O)[C@@H](C)[C@@H](O)[C@@H](C)[C@H](OC(C)=O)[C@@H]1C [Rifampicin, rifampicin]
MBC (S. epidermidis 154; [5]): 0.05 µg/mL
MBC (S. epidermidis 154; antibiotic alone, 20 h): 0.063 µg/mL
MBC [1, 6]: 0.063 µg/mL
MIC [1, 6]: 0.063 µg/mL

CN[C@H](CC(C)C)C(=O)N[C@H]1C(=O)N[C@@H](CC(N)=O)C(=O)N[C@H]2C(=O)N[C@H]3C(=O)N[C@H](C(=O)N[C@H](C(=O)O)c4cc(O)cc(O)c4-c4cc3ccc4O)[C@H](O)c3ccc(c(Cl)c3)Oc3cc2cc(c3O[C@@H]2O[C@H](CO)[C@@H](O)[C@H](O)[C@H]2O[C@H]2C[C@](C)(N)[C@H](O)[C@H](C)O2)Oc2ccc(cc2Cl)[C@H]1O [Vancomycin, vancomycin]
MBC (S. epidermidis 154; [7]): 3.1 µg/mL
MIC (S. epidermidis 154; [7]): 1.5 µg/mL
MBC [1, 6]: 3.1 µg/mL
MIC [1, 6]: 1.5 µg/mL
MBC [2, 8]: 3.1 µg/mL
MIC [2, 8]: 3.1 µg/mL
MBC ([3]; Staphylococcus aureus, 24 h): 3.1 µg/mL
MBC [4, 8]: 6.25 µg/mL
MIC [4, 8]: 6.25 µg/mL

CC(C)C[C@H](NC(=O)[C@H](Cc1ccc(O)cc1)NC(=O)[C@H](Cc1ccc(O)cc1)NC(=O)CNC(=O)[C@H](Cc1c[nH]c2ccccc12)NC(=O)[C@H](CO)NC(=O)[C@H](CO)NC(=O)[C@H](Cc1c[nH]c2ccccc12)NC(=O)[C@H](CC(C)C)NC(=O)[C@H](CCCCN)NC(=O)[C@@H](NC(=O)[C@@H](NC(=O)[C@H](CC(C)C)NC(=O)[C@@H](N)CC(=O)O)[C@@H](C)O)[C@@H](C)O)C(=O)NCC(=O)O [α1-15] (H-DLTTKLWSSWGYYLG-OH)
cytotoxic at relevant concentrations (<50 µM), determined by haemolytic activity (human erythrocytes): nor the truncated α1–22, α1–15, β7–34, β7–20 and β1–20 were cytotoxic

CC(C)C[C@H](NC(=O)[C@H](CC(N)=O)NC(=O)[C@H](Cc1c[nH]c2ccccc12)NC(=O)[C@H](CCCNC(=N)N)NC(=O)[C@H](C)NC(=O)[C@H](CCCCN)NC(=O)[C@H](CCCCN)NC(=O)CNC(=O)[C@H](CC(C)C)NC(=O)[C@H](Cc1ccc(O)cc1)NC(=O)[C@H](Cc1ccc(O)cc1)NC(=O)CNC(=O)[C@H](Cc1c[nH]c2ccccc12)NC(=O)[C@H](CO)NC(=O)[C@H](CO)NC(=O)[C@H](Cc1c[nH]c2ccccc12)NC(=O)[C@H](CC(C)C)NC(=O)[C@H](CCCCN)NC(=O)[C@@H](NC(=O)[C@@H](NC(=O)[C@H](CC(C)C)NC(=O)[C@@H](N)CC(=O)O)[C@@H](C)O)[C@@H](C)O)C(=O)O [α1-22] (H-DLTTKLWSSWGYYLGKKARWNL-OH)
cytotoxic at relevant concentrations (<50 µM), determined by haemolytic activity (human erythrocytes): nor the truncated α1–22, α1–15, β7–34, β7–20 and β1–20 were cytotoxic

CC[C@H](C)[C@H](NC(=O)CNC(=O)[C@H](CC(C)C)NC(=O)[C@@H](NC(=O)[C@H](Cc1ccc(O)cc1)NC(=O)[C@@H](NC(=O)[C@H](CO)NC(=O)[C@@H](NC(=O)[C@@H]1CCCN1C(=O)[C@@H](NC(=O)[C@@H](N)CO)C(C)C)[C@@H](C)O)C(C)C)[C@@H](C)O)C(=O)N[C@@H](CCCCN)C(=O)N[C@H](C(=O)N[C@@H](CC(C)C)C(=O)N[C@@H](Cc1c[nH]c2ccccc12)C(=O)N[C@@H](CO)C(=O)N[C@@H](C)C(=O)N[C@@H](Cc1ccc(O)cc1)C(=O)N[C@@H](CCCCN)C(=O)N[C@@H](Cc1c[nH]cn1)C(=O)O)[C@@H](C)CC [β1-20] (H-SVPTSVYTLGIKILWSAYKH-OH)
cytotoxic at relevant concentrations (<50 µM), determined by haemolytic activity (human erythrocytes): nor the truncated α1–22, α1–15, β7–34, β7–20 and β1–20 were cytotoxic

CC[C@H](C)[C@H](NC(=O)CNC(=O)[C@H](CC(C)C)NC(=O)[C@@H](NC(=O)[C@@H](N)Cc1ccc(O)cc1)[C@@H](C)O)C(=O)N[C@@H](CCCCN)C(=O)N[C@H](C(=O)N[C@@H](CC(C)C)C(=O)N[C@@H](Cc1c[nH]c2ccccc12)C(=O)N[C@@H](CO)C(=O)N[C@@H](C)C(=O)N[C@@H](Cc1ccc(O)cc1)C(=O)N[C@@H](CCCCN)C(=O)N[C@@H](Cc1c[nH]cn1)C(=O)O)[C@@H](C)CC [β7-20] (H-YTLGIKILWSAYKH-OH)
cytotoxic at relevant concentrations (<50 µM), determined by haemolytic activity (human erythrocytes): nor the truncated α1–22, α1–15, β7–34, β7–20 and β1–20 were cytotoxic

CC[C@H](C)[C@H](NC(=O)CNC(=O)[C@H](CC(C)C)NC(=O)[C@@H](NC(=O)[C@@H](N)Cc1ccc(O)cc1)[C@@H](C)O)C(=O)N[C@@H](CCCCN)C(=O)N[C@H](C(=O)N[C@@H](CC(C)C)C(=O)N[C@@H](Cc1c[nH]c2ccccc12)C(=O)N[C@@H](CO)C(=O)N[C@@H](C)C(=O)N[C@@H](Cc1ccc(O)cc1)C(=O)N[C@@H](CCCCN)C(=O)N[C@@H](Cc1c[nH]cn1)C(=O)N[C@@H](CCCNC(=N)N)C(=O)N[C@@H](CCCCN)C(=O)N[C@H](C(=O)N[C@H](C(=O)N[C@@H](CCC(=O)O)C(=O)N[C@@H](CCCCN)C(=O)N[C@@H](CO)C(=O)N[C@@H](Cc1ccccc1)C(=O)N[C@@H](CC(N)=O)C(=O)N[C@@H](CCCCN)C(=O)NCC(=O)N[C@@H](Cc1ccccc1)C(=O)N[C@@H](Cc1ccc(O)cc1)C(=O)N[C@@H](Cc1c[nH]cn1)C(=O)O)[C@@H](C)CC)[C@@H](C)O)[C@@H](C)CC [β7-34] (H-YTLGIKILWSAYKHRKTIEKSFNKGFYH-OH)
cytotoxic at relevant concentrations (<50 µM), determined by haemolytic activity (human erythrocytes): nor the truncated α1–22, α1–15, β7–34, β7–20 and β1–20 were cytotoxic

teicoplanin
MBC (S. epidermidis 154; antibiotic alone, 20 h): 1.5 µg/mL
MIC (S. epidermidis 154; antibiotic alone, 20 h): 1.5 µg/mL
MBC [1, 9]: 1.5 µg/mL
MIC [1, 9]: 1.5 µg/mL
MBC [2, 10]: 6.25 µg/mL
MIC [2, 10]: 3.1 µg/mL
MBC [3, 11]: 3.1 µg/mL
MIC [3, 11]: 0.78 µg/mL
MBC [4, 12]: 25 µg/mL
MIC [4, 12]: 12.5 µg/mL
